Assays:
[1] = system: IgE antibodies from patients; assay: Epitope mapping (3): alanine scanning; design: species or system human; details: positions numbered within the region important for binding; no influence on IgE binding when substituted by alanine
Procedure: From the amino acid sequences identified above in (A), a library of peptide fragments in which N-terminal amino acids were substituted one by one by alanine according to a technique called alanine scanning (Non Patent Literature 5) was prepared by the same technique as described above. The presence or absence of binding of an IgE antibody present in the serum of a patient and a non-fish-allergic subject to each peptide fragment was measured by the same technique as described above. Amino acids at positions where the binding activity against IgE antibodies from patients were lost or decreased by the substitution by alanine while binding activity against IgE antibodies from non-fish-allergic subjects arose were confirmed as amino acids important for exertion of original antigenicity, or amino acids influencing exertion of original antigenicity.
Chemiluminescence intensity in images obtained by measurement was converted into a numeric value in the same manner as in (A) using ImageQuant TL (GE Healthcare). When values obtained using the sequences (SEQ ID NOs: 150-204) that were of the peptides confirmed to bind to an IgE antibody in a patient specific manner from the images obtained from results about the serum of 5 patients and served as the basis of overlapping were defined as 100%, it was determined that: a peptide having a value of less than 20% had no binding activity against IgE antibodies; a peptide having a value of 20% or more and less than 50% had binding activity, albeit poor, against IgE antibodies; a peptide having a value of 50% or more and less than 70% had binding activity, albeit somewhat poor, against IgE antibodies; a peptide having a value of 70% or more and less than 90% had equivalent binding activity against IgE antibodies; and a peptide having a value of 90% or more had almost equivalent or good binding activity against IgE antibodies and was thus a peptide had remaining binding activity against IgE antibodies.
By this analysis, common sequences important for exertion of original antigenicity were found in regions important for binding to IgE antibodies from patients, in the sequences serving as the basis of overlapping.

[2] = system: IgE antibodies from patients; assay: Epitope mapping (2): overlapping 10-amino-acid peptide fragments shifted by one amino acid; assay type: binding, human; details: positions numbered within the 15-amino-acid epitope; serum of 5 patients
Description: On the basis of the sequences (SEQ ID NOs: 150-154 for alpha-actinin-3, SEQ ID NO: 155 for EEF1A2 binding protein-like, SEQ ID NOs: 156 and 157 for alpha-1,4-glucan phosphorylase, SEQ ID NOs: 158 and 159 for elongation factor 2, SEQ ID NOs: 160-162 for heat shock cognate 70 kDa protein, SEQ ID NOs: 163-167 for serotransferrin, SEQ ID NOs: 168-171 for myosin binding protein H-like, SEQ ID NOs: 172-174 for desmin (fragment), SEQ ID NOs: 175-178 for capping protein (actin filament) muscle Z-line beta, SEQ ID NOs: 179-185 for myosin heavy chain, fast skeletal muscle-like, SEQ ID NO: 186 for glycogen phosphorylase, muscle form-like, SEQ ID NOs: 187-196 for myosin-binding protein C, fast-type-like, SEQ ID NO: 197 for ATP synthase subunit beta, mitochondrial, SEQ ID NO: 198 for L-lactate dehydrogenase A chain-like, SEQ ID NO: 199 for aldolase, SEQ ID NOs: 200-202 for β-enolase, and SEQ ID NOs: 203 and 204 for glyceraldehyde-3-phosphate dehydrogenase) of the peptides bound to an IgE antibody in serum in a patient-specific manner as described above in (A), a library of overlapping peptide fragments (length: 10 amino acids) was prepared using the sequences of the peptides and sequences in which sequences were added so as to flank each peptide in the amino acid sequences of allergen components (SEQ ID NO: 2 for alpha-actinin-3, SEQ ID NO: 5 for EEF1A2 binding protein-like, SEQ ID NO: 10 for alpha-1,4-glucan phosphorylase, SEQ ID NO: 19 for elongation factor 2, SEQ ID NO: 26 for heat shock cognate 70 kDa protein, SEQ ID NO: 33 for serotransferrin, SEQ ID NO: 43 for myosin binding protein H-like, SEQ ID NO: 56 for desmin (fragment), SEQ ID NO: 61 for capping protein (actin filament) muscle Z-line beta, SEQ ID NO: 70 for myosin heavy chain, fast skeletal muscle-like, SEQ ID NO: 110 for glycogen phosphorylase, muscle form-like, SEQ ID NO: 121 for myosin-binding protein C, fast-type-like, SEQ ID NO: 138 for ATP synthase subunit beta, mitochondrial, SEQ ID NO: 144 for L-lactate dehydrogenase A chain-like, SEQ ID NO: 445 for aldolase, SEQ ID NO: 446 for β-enolase, and SEQ ID NO: 447 for glyceraldehyde-3-phosphate dehydrogenase) comprising the sequences of the peptide. Epitope mapping was carried out using the library.
The peptides to be synthesized were shifted by one amino acid.
The library was prepared by the same procedure as described above in (A), and the presence or absence of binding of an IgE antibody present in the serum of a patient and a non-fish-allergic subject to each peptide fragment was measured by the same technique as described above. Amino acids at positions where the binding activity against IgE antibodies from patients were lost or decreased in the peptides shifted by one amino acid while binding activity against IgE antibodies from non-fish-allergic subjects arose were confirmed as amino acids adversely affecting the specificity of binding to IgE antibodies.
Chemiluminescence intensity in images obtained by measurement was converted into a numeric value in the same manner as in (A) using ImageQuant TL (GE Healthcare). […]

Row | Substance | Non-binding-influencing amino acid in region important for binding [1] | Positions of amino acids of region important for binding in epitope [2]
1 | 3 (SCFYHAFAGAEQAET; epitope) [compound 3] | 2 | 1-15
2 | 4 (TKLRLSNRPAFMPSE; epitope) [compound 4] |  | 1-15
3 | 12 (EAEQYKAADDVQRDK; heat shock cognate 70 kDa protein epitope) [compound 12] | 2 | 
4 | 13 (KLSDEDKQKILDKCN; epitope) [compound 13] | 4 | 
5 | 15 (YSGAFQCLKDGAGEV; epitope) [compound 15] |  | 8-15
6 | 18 (YYGYNGAFRCLVEDA; epitope) [compound 18] | 2 | 
7 | 19 (RYVKKVGEKINIVIP; epitope) [compound 19] | 3 | 
8 | 21 (KEVIDYKPTPFVEHD; epitope) [compound 21] |  | 2-15
9 | 25 (DVGRSAEVHSKKTVL; epitope) [compound 25] |  | 1-7
10 | 26 (VILIKKAGDGSKKIK; epitope) [compound 26] | 3-5 | 
11 | 27 (IHVVEVQEKSSGRTA; epitope) [compound 27] |  | 2-12
12 | 29 (DNQKYRQLQKELSQV; epitope) [compound 29] |  | 3-14
13 | 30 (TVTALDFREGKEFKD; epitope) [compound 30] | 2-4 | 
14 | 31 (YNSMEQLCINFTNEK; epitope) [compound 31] | 2 | 7-15
15 | 32 (LYPPPPPEDKAKKGG; epitope) [compound 32] |  | 1-10
16 | 34 (EEDKVNTLTKAKTKL; epitope) [compound 34] |  | 5-14
17 | 38 (LKATKKKKKPVVDEE; epitope) [compound 38] | 2 | 
18 | 40 (TDLRGLLKRLKKMKT; epitope) [compound 40] |  | 2-8
19 | 44 (YTFIPDGYALSLSAK; epitope) [compound 44] | 2-4 | 
20 | 45 (GAPVTGYLMERKKKG; epitope) [compound 45] |  | 3-7
21 | 46 (RQKYIRRVGDKINLT; epitope) [compound 46] |  | 2-13
22 | 51 (DGDKSRYLGKGTVKA; epitope) [compound 51] | 7 | 6-13
23 | 52 (YRHIADLAGHKDVIL; epitope) [compound 52] | 2-4 | 
24 | 53 (NLKNVIKAKYGKDAT; epitope) [compound 53] | 3-6 | 6-15
25 | SEQ ID NO: 207: region important for binding, amino acids at positions 1-10 of epitope 1 (SEQ ID NO: 150) (SGERLPKPDK; epitope) | 2-6 | 
26 | SEQ ID NO: 210: region important for binding, amino acids at positions 9-14 of epitope 1 (SEQ ID NO: 150) (DKGKMR; epitope) | 3-5 | 

— patent publication US12630594B2, “Allergy antigen and epitope for same” (HOYU CO., LTD., priority 2017, dated 2026)
